molecular target: T1, ATM (Homo sapiens, UniProt Q13315); assay: ATM inhibition test (phosphorylation of Chk2 generated by ionizing radiation, AlphaScreen SureFire); type: cell-based; conditions: ATM inhibitory activity, phosphorylated Chk2 in NCI-H460 cells, ionizing radiation 8Gy, 1 hour after test compound treatment
T1 construct: detecting phosphorylation of Chk2 in a human non-small cell lung cancer cell line NCI-H460 (ATCC company); host or cells: NCI-H460 human non-small cell lung cancer cells
Summary of the method: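 NCI-H460 cells treated with compound for 1 hour, then irradiated with 8Gy and incubated 1 hour at 37° C. Phospho-Chk2 measured by AlphaScreen SureFire. Inhibition ratio calculated relative to untreated irradiated and non-irradiated wells.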

T1 sequence (Q13315 whole entry): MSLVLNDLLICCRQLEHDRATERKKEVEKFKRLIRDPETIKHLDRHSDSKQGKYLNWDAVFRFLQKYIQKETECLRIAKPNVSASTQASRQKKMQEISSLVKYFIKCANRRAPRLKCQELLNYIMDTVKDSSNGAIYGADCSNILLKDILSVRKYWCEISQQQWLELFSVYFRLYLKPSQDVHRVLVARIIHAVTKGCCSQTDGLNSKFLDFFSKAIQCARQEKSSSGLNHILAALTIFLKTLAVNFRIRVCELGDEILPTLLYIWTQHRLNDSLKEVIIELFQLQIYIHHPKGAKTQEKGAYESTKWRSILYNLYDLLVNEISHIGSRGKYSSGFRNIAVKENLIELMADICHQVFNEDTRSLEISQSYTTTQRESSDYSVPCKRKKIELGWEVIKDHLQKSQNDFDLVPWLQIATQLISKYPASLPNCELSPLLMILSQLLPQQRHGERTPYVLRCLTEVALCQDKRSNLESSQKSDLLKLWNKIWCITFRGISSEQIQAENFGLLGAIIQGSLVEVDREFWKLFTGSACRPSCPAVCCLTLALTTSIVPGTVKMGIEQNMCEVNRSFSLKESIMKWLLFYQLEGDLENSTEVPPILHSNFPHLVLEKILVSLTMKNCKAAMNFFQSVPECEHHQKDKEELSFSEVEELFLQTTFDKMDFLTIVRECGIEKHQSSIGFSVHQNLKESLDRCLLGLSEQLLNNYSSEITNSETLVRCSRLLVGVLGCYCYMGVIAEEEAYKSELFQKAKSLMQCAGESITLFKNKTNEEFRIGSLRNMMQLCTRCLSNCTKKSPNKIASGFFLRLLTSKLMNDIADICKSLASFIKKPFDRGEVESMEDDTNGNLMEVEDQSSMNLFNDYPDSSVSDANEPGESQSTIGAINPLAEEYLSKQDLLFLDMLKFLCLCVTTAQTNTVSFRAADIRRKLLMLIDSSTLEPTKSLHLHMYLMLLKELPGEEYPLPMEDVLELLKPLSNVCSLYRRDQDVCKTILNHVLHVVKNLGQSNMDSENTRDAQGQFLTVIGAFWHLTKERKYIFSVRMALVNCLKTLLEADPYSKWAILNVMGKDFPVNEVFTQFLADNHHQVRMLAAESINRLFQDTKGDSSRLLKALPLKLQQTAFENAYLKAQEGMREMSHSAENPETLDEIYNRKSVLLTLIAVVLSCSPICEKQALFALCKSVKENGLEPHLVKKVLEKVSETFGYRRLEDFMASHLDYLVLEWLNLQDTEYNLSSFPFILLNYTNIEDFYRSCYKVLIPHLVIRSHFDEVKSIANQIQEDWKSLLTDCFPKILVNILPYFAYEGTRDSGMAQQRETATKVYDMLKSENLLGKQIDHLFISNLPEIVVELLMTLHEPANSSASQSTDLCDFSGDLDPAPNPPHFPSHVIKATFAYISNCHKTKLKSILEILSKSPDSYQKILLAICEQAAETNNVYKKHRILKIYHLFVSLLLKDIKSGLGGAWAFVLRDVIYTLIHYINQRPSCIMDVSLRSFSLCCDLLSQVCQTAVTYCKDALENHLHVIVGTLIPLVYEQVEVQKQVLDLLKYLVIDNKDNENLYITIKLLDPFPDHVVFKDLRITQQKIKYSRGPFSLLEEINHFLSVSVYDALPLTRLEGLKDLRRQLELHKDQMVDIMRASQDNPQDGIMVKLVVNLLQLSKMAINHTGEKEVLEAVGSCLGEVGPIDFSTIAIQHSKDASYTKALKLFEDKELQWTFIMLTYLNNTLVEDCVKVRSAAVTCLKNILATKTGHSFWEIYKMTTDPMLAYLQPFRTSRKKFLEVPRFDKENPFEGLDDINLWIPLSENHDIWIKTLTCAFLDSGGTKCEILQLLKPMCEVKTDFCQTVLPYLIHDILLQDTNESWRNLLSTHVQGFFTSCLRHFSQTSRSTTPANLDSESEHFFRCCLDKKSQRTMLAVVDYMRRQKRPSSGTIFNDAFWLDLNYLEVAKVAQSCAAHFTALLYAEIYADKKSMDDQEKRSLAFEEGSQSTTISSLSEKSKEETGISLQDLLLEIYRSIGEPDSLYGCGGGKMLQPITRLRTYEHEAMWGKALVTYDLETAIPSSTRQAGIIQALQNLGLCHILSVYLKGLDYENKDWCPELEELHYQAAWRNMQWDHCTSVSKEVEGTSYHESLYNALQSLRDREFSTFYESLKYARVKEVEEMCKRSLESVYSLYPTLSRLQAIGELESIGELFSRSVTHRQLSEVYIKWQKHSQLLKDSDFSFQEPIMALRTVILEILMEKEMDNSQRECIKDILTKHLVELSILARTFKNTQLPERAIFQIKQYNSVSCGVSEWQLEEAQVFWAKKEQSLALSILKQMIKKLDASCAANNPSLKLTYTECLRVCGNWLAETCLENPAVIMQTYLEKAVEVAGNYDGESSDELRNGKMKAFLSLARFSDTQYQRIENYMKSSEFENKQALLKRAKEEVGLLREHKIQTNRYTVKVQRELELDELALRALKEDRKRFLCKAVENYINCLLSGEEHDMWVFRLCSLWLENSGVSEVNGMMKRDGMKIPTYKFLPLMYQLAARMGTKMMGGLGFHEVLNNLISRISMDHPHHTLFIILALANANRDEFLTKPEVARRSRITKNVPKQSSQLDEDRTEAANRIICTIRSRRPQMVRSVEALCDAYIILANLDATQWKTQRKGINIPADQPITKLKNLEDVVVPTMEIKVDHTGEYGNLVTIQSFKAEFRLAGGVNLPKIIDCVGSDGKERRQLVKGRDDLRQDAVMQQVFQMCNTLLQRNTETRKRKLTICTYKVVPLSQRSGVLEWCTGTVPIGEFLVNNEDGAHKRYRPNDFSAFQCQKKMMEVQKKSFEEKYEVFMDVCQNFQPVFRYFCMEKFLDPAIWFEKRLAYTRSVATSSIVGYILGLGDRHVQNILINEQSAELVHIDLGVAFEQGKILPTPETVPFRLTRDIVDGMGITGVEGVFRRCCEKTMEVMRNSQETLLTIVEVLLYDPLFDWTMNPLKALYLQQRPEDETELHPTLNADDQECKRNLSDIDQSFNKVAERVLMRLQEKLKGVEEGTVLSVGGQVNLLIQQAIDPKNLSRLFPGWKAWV

Compound	IC50
O=c1cc(N2CCOCC2)cc(-c2cccc3c2Sc2ccc(NCc4cccc(N5CCOCC5)n4)cc2S3)[nH]1 [Example 1-12-32, 4-Morpholino-6-(7-(((6-morpholinopyridin-2-yl)methyl)amino)thianthren-1 yl)pyridin-2(1H)-one]	100 to 500 nM

same assay, conditions: phosphorylated Chk2 in NCI-H460 cells, ionizing radiation 8Gy, 1 hour after test compound treatment; read-out: ATM inhibitory activity

Compound	IC50
O=c1cc(N2CCOCC2)cc(-c2cccc3c2Sc2ccc(NCc4cccnc4)cc2S3)[nH]1 [Example 1-12-25, 4-Morpholino-6-(7-((pyridin-3-ylmethyl)amino)thianthren-1-yl)pyridin-2 (1H)-one]	100 to 500 nM
CCCC(Nc1ccc2c(c1)Sc1cccc(-c3cc(N4CCOCC4)cc(=O)[nH]3)c1S2)c1cncc(OC)c1 (stereo not shown) [Example 1-12-26, 6-(7-((1-(5-Methoxypyridin-3-yl)butyl)amino)thianthren-1-yl)-4-morpholino pyridin-2 (1H)-one]	100 to 500 nM
O=c1cc(N2CCOCC2)cc(-c2cccc3c2Sc2ccc(NCCCc4cccnc4)cc2S3)[nH]1 [Example 1-12-27, 4-Morpholino-6-(7-((3-(pyridin-3-yl)propyl)amino)thianthren-1-yl)pyridin-2(1H)-one]	500 to 2000 nM
CN1CCC(CNc2ccc3c(c2)Sc2cccc(-c4cc(N5CCOCC5)cc(=O)[nH]4)c2S3)CC1 [Example 1-12-31, 6-(7-(((1-Methylpiperidin-4-yl)methyl)amino)thianthren-1-yl)-4-morpholino pyridin-2(1H)-one]	100 to 500 nM
CN1CCN(c2cccc(CNc3ccc4c(c3)Sc3cccc(-c5cc(N6CCOCC6)cc(=O)[nH]5)c3S4)n2)CC1 [Example 1-12-33, 6-(7-(((6-(4-Methylpiperazin-1-yl)pyridin-2-yl)methyl)amino)thianthren-1-yl)-4-morpholino pyridin-2 (1H)-one]	100 to 500 nM
CCN(CC)C(=O)CN1CCN(c2cccc(CNc3ccc4c(c3)Sc3cccc(-c5cc(N6CCOCC6)cc(=O)[nH]5)c3S4)n2)CC1 [Example 1-12-34, N,N-Diethyl-2-(4-(6-(((6-(4-morpholino-6-oxo-1,6-dihydro-pyridin-2-yl)thianthren-2-yl)amino)methyl)pyridin-2-yl)piperazin-1-yl) acetamide]	500 to 2000 nM
CN(C)C1CCN(c2cccc(CNc3ccc4c(c3)Sc3cccc(-c5cc(N6CCOCC6)cc(=O)[nH]5)c3S4)n2)C1 (stereo not shown) [Example 1-12-35, 6-(7-(((6-(3-(Dimethylamino)pyrrolidin-1-yl)pyridin-2-yl)methyl)amino)thianthren-1-yl)-4-morpholino pyridin-2 (1H)-one]	100 to 500 nM
O=c1cc(N2CCOCC2)cc(-c2cccc3c2Sc2ccc(NCc4ccncn4)cc2S3)[nH]1 [Example 1-12-36, 4-Morpholino-6-(7-((pyrimidin-4-ylmethyl)amino)thianthren-1-yl) pyridin-2(1H)-one]	100 to 500 nM
Cc1nccc(CNc2ccc3c(c2)Sc2cccc(-c4cc(N5CCOCC5)cc(=O)[nH]4)c2S3)n1 [Example 1-12-39, 6-(7-(((2-Methylpyrimidin-4-yl)methyl)amino)thianthren-1-yl)-4-morpholino pyridin-2 (1H)-one]	500 to 2000 nM
CN(C)c1nccc(CNc2ccc3c(c2)Sc2cccc(-c4cc(N5CCOCC5)cc(=O)[nH]4)c2S3)n1 [Example 1-12-40, 6-(7-(((2-(Dimethylamino)pyrimidin-4-yl)methyl)amino)thianthren-1-yl)-4-morpholino pyridin-2(1H)-one]	100 to 500 nM
O=c1cc(N2CCOCC2)cc(-c2cccc3c2Sc2ccc(NCc4ccnc(N5CCOCC5)n4)cc2S3)[nH]1 [Example 1-12-41, 4-Morpholino-6-(7-(((2-morpholinopyrimidin-4-yl)methyl)amino)thianthren-1-yl)pyridin-2(1H)-one]	100 to 500 nM
O=c1cc(N2CCOCC2)cc(-c2cccc3c2Sc2ccc(NCc4cnccn4)cc2S3)[nH]1 [Example 1-12-42, 4-Morpholino-6-(7-((pyrazin-2-ylmethyl)amino)thianthren-1-yl) pyridin-2(1H)-one]	100 to 500 nM
CC(Nc1ccc2c(c1)Sc1cccc(-c3cc(N4CCOCC4)cc(=O)[nH]3)c1S2)C1CC1 (stereo not shown) [Example 1-12-43, 6-(7-((1-Cyclopropylethyl)araino)thianthren-1-yl)-4-morpholino pyridin-2(1H)-onc]	500 to 2000 nM
CN(C)C(=O)Nc1ncc(CNc2ccc3c(c2)Sc2cccc(-c4cc(N5CCOCC5)cc(=O)[nH]4)c2S3)cn1 [Example 1-12-47]	100 to 500 nM
O=C(Nc1ncc(CNc2ccc3c(c2)Sc2cccc(-c4cc(N5CCOCC5)cc(=O)[nH]4)c2S3)cn1)N1CCCC1 [Example 1-12-48, N-(5-(((6-(4-Morpholino-6-oxo-1,6-dihydropyridin-2-yl)thianthren-2-yl)amino)methyl)pyrimidin-2-yl)pyrrolidine-1-car-boxamide]	100 to 500 nM
N#Cc1ccc(CNc2ccc3c(c2)Sc2cccc(-c4cc(N5CCOCC5)cc(=O)[nH]4)c2S3)s1 [Example 1-12-51, 5-(((6-(4-Morpholino-6-oxo-1,6-dihydropyridin-2-yl)thianthren-2-yl)amino)methyl)thiophene-2-carbonitrile]	100 to 500 nM
O=c1cc(N2CCOCC2)cc(-c2cccc3c2Sc2ccc(NCc4nccs4)cc2S3)[nH]1 [Example 1-12-52, 4-Morpholino-6-(7-((thiazol-2-ylmethyl)amino)thianthren-1-yl) pyridin-2 (1H)-one]	100 to 500 nM
O=c1cc(N2CCOCC2)cc(-c2cccc3c2Sc2ccc(NCc4cscn4)cc2S3)[nH]1 [Example 1-12-53, 4-Morpholino-6-(7-((thiazol-4-ylmethyl)amino)thianthren-1-yl)pyridin-2 (1H)-one]	100 to 500 nM
O=c1cc(N2CCOCC2)cc(-c2cccc3c2Sc2ccc(NCc4cncs4)cc2S3)[nH]1 [Example 1-12-54, 4-Morpholino-6-(7-((thiazol-5-ylmethyl)amino)thianthren-1-yl)pyridin-2 (1H)-one]	100 to 500 nM
CCOC(=O)C(C)Nc1ccc2c(c1)Sc1cccc(-c3cc(N4CCOCC4)cc(=O)[nH]3)c1S2 (stereo not shown) [Example 1-12-55, Ethyl 2-((6-(4-morpholino-6-oxo-1,6-dihydropyridin-2-yl)thianthren-2-yl)amino) propanoate]	100 to 500 nM
Cc1ccc(CNc2ccc3c(c2)Sc2cccc(-c4cc(N5CCOCC5)cc(=O)[nH]4)c2S3)s1 [Example 1-12-57, 6-(7-(((5-Methylthiophen-2-yl)methyl)amino)thianthren-1-yl)-4-morpholino pyridin-2 (1H)-one]	100 to 500 nM

Results, then the compound that gave them:

IC50	Compound
100 to 500 nM	CNc1ccc(CNc2ccc3c(c2)Sc2cccc(-c4cc(N5CCOCC5)cc(=O)[nH]4)c2S3)cn1 [Example 1-12-8, 6-(7-(((6-(Methylamino)pyridin-3-yl)methyl)amino)thianthren-1-yl)-4-morpholino pyridin-2(1H)-one]
100 to 500 nM	COc1ncc(CNc2ccc3c(c2)Sc2cccc(-c4cc(N5CCOCC5)cc(=O)[nH]4)c2S3)cn1 [Example 1-12-10, 6-(7-(((2-Methoxypyrimidin-5-yl)methyl)amino)thianthren-1-yl)-4-morpholino pyridin-2(1H)-one]
100 to 500 nM	COc1ccc(CNc2ccc3c(c2)Sc2cccc(-c4cc(N5CCOCC5)cc(=O)[nH]4)c2S3)nc1 [Example 1-12-12, 6-(7-(((5-Methoxypyridin-2-yl)methyl)amino)thianthren-1-yl)-4-morpholino pyridin-2(1H)-one]
100 to 500 nM	COc1ccc(CNc2ccc3c(c2)Sc2cccc(-c4cc(N5CCOCC5)cc(=O)[nH]4)c2S3)cn1 [Example 1-12-16, 6-(7-(((6-Methoxypyridin-3-yl)methyl)amino)thianthren-1-yl)-4-morpholino pyridin-2 (1H)-one]
100 to 500 nM	CCC(Nc1ccc2c(c1)Sc1cccc(-c3cc(N4CCOCC4)cc(=O)[nH]3)c1S2)c1cncc(OC)c1 (stereo not shown) [Example 1-12-17, 6-(7-((1-(5-Methoxypyridin-3-yl)propyl)amino)thianthren-1-yl)-4-morpholino pyridin-2(1H)-one]
< 100 nM	O=c1cc(N2CCOCC2)cc(-c2cccc3c2Sc2ccc(NCc4cncc(-n5cccc5)c4)cc2S3)[nH]1 [Example 1-12-19, 6-(7-(((5-(1H-Pyrrol-1-yl)pyridin-3-yl)methyl)amino)thianthren-1-yl)-4-morpholino pyridin-2(1H)-one]
< 100 nM	O=c1cc(N2CCOCC2)cc(-c2cccc3c2Sc2ccc(NCc4cncc(-n5ccnc5)c4)cc2S3)[nH]1 [Example 1-12-20, 6-(7-(((5-(1H-Imidazol-1-yl)pyridin-3-yl)methyl)amino)thianthren-1-yl)-4-morpholino pyridin-2(1H)-one]
< 100 nM	O=c1cc(N2CCOCC2)cc(-c2cccc3c2Sc2ccc(NCc4cncc(-c5cccnc5)c4)cc2S3)[nH]1 [Example 1-12-21, 6-(7-(([3,3′-Bipyridin]-5-ylmethyl)amino)thianthren-1-yl)-4-morpholino pyridin-2 (1H)-one]
100 to 500 nM	Cn1cc(-c2cncc(CNc3ccc4c(c3)Sc3cccc(-c5cc(N6CCOCC6)cc(=O)[nH]5)c3S4)c2)cn1 [Example 1-12-22, 6-(7-(((5-(1-Methyl-1H-pyrazol-4-yl)pyridin-3-yl)methyl)amino)thianthren-1-yl)-4-morpholino pyridin-2 (1H)-one]
100 to 500 nM	COc1ccncc1CNc1ccc2c(c1)Sc1cccc(-c3cc(N4CCOCC4)cc(=O)[nH]3)c1S2 [Example 1-12-23, 6-(7-(((4-Methoxypyridin-3-yl)methyl)amino)thianthren-1-yl)-4-morpholino pyridin-2 (1H)-one]
100 to 500 nM	CNc1ncccc1CNc1ccc2c(c1)Sc1cccc(-c3cc(N4CCOCC4)cc(=O)[nH]3)c1S2 [Example 1-12-24, 6-(7-(((2-(Methylamino)pyridin-3-yl)methyl)amino)thianthren-1-yl)-4-morpholino pyridin-2(1H)-one]
< 100 nM	CCOC(=O)CNc1ccc2c(c1)Sc1cccc(-c3cc(N4CCOCC4)cc(=O)[nH]3)c1S2 [Example 1-12-49, Ethyl 2-((6-(4-morpholino-6-oxo-1,6-dihydropyridin-2-yl)thianthren-2-yl)amino) acetate]

Source: patent US9586951B2 (FUJIFILM Corporation, priority 2013, dated 2017)
